The record followed here is US20250313574A1, “SIALIC ACID DERIVATIVES AND METHODS OF USING SAME” (EISAI R&D MANAGEMENT CO., LTD., priority 2022, published 2025).

Several values for one entry are separate records, joined by “and”; a condition that tells them apart may be missing. Identical values can stand only once. Like-named read-outs stand apart in the source and are kept apart here.

The conditions of data set [1]: rcm bond, Hoveyda-Grubbs II/quinone, toluene.
Data set [2] deals with Recombinant human CD33 protein (Homo sapiens (Human), UniProt P20138). Description: CD33 competitive binding assay for HTS drug screen (fluorescent multivalent sialic acid probe). The essentials:
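Recombinant human CD33, coated overnight at 4° C from 10 μg/ml in pH 5.5 acetate, was preincubated briefly with compound. It was then exposed to a multivalent neutravidin/FITC/sialic acid analog A-375 probe (final 5 μM neutravidin, 15 μM A-375, 5 μM FITC) for 30 min at room temperature. After washing, bound FITC fluorescence was read.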

The target of data set [3] is recombinant human CD33 (Siglec-3, sialic acid binding Ig-like lectin 3) protein (Homo sapiens (Human), UniProt P20138). Description: Differential Scanning Fluorimetry (DSF, Protein Thermal Shift Assay). Particulars: 50 μM of A-001; CD33 alone melts at approximately 55° C. The procedure: FIG. 1 depicts thermograms (A) and derivative curves (B) of His-CD33 (gray) and His-CD33 with A-001 (blue).
recombinant human CD33 (Siglec-3, sialic acid binding Ig-like lectin 3) protein, sequence (P20138 18-259): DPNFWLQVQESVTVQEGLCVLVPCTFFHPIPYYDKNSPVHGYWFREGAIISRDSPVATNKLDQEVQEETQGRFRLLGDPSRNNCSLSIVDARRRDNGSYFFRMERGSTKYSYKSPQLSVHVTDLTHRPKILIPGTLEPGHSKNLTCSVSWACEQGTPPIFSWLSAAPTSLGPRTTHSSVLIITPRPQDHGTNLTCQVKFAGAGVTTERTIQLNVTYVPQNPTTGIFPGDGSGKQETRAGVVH
Differential Scanning Fluorimetry (also known as DSF, Protein Thermal Shift Assay, Thermofluor Assay) was used to measure and compare the thermal melt or thermal denaturation temperature of recombinant human CD33 (Siglec-3, sialic acid binding Ig-like lectin 3) protein in the presence of 50 μM of A-001. In the absence of any compound, the CD33 protein has a thermal melt at approximately 55° C. under the method conditions described in this report.
(In general: Differential scanning fluorimetry follows unfolding on heating by fluorescence.)

In data set [4] the target is Recombinant Human Siglec-3/CD33 protein (His-CD33) (Homo sapiens (Human), UniProt P20138). Description: Differential scanning fluorimetry (DSF) thermal shift assay. It counts as binding.
Recombinant Human Siglec-3/CD33 protein (His-CD33), sequence (P20138 18-259): as above

Recombinant human CD33 protein, sequence (P20138 18-259): as above

As for `COC(=O)[C@]12CC=CCOC[C@@H](NC(=O)C3CCCOC3)COCCCOc3c(C)cc(cc3C)C(=O)NC[C@@H](OC(C)=O)[C@@H](OC(C)=O)[C@H](O1)[C@H](NC(=O)OC(C)(C)C)[C@@H](OC(C)=O)C2` (stereo partly shown), the ring closure, isolated yield in data set [1] (from C=CCOC[C@H](COCCCOc1c(C)cc(C(=O)NC[C@@H](OC(C)=O)[C@@H](OC(C)=O)[C@@H]2O[C@@](CC=C)(C(=O)OC)C[C@H](OC(C)=O)[C@H]2NC(=O)OC(C)(C)C)cc1C)NC(=O)C1CCCOC1, 25-membered ring, 1.04 mM, 90.0 °C, 24.0 h) stood at 76%.

What is called EC50 is the concentration needed to bring the measured effect to its halfway point. For orientation: ΔTm means the shift of the melting midpoint relative to a reference. `CC(=O)N[C@H]1[C@H]([C@H](O)[C@H](O)CNC(=O)c2cc(C)c(O)c(C)c2)O[C@@](CCN2CCOC[C@@]23CCN(C(=O)OC(C)(C)C)C3)(C(=O)O)C[C@@H]1O` [A-001]: the EC50 in data set [2] worked out at 0.015 µM. The “increase in thermal melt (dTm D) of CD33 protein” value in data set [3] worked out at 12.2±0.7 °C. Moreover, in data set [4] (50 μM compound, 0.5 μM CD33 protein, pH 7.4, individual determinations), the “ΔTm D (° C.)” value is 11.9 °C and 12.9 °C. Besides, the ΔTm at 50 µM in data set [4] (50 μM compound, 0.5 μM CD33 protein, pH 7.4, individual determinations, read-out: ΔTm D (° C.)) worked out at 12.2 °C; in data set [4] (50 μM compound, 0.5 μM CD33 protein, pH 7.4, read-out: Median ΔTm D (° C.)), 12.2 ± 0.7 °C. For the same molecule, the “DSF (dTmD)” value in data set [4] (thermal melt shift of 0.5 μM CD33 protein with 50 μM compound) is 12.9.

The molecule `COC(=O)[C@]12CC=CCOC[C@@H](NC(=O)OC(C)(C)C)COCCCOc3c(C)cc(cc3C)C(=O)NC[C@@H](OC(C)=O)[C@@H](OC(C)=O)[C@H](O1)[C@H](NC(C)=O)[C@@H](OC(C)=O)C2` registered a ring closure, isolated yield in data set [1] (from C=CCOC[C@H](COCCCOc1c(C)cc(C(=O)NC[C@@H](OC(C)=O)[C@@H](OC(C)=O)[C@@H]2O[C@@](CC=C)(C(=O)OC)C[C@H](OC(C)=O)[C@H]2NC(C)=O)cc1C)NC(=O)OC(C)(C)C, 25-membered ring, 1.12 mM, 100.0 °C, 3.0 h) of 84%.

As for `COC(=O)[C@]12CC=Cc3cccc(c3)[C@@H](NC(=O)C3CCCOC3)CCCCc3cc(cc(Cl)c3OC(C)=O)C(=O)NC[C@@H](OC(C)=O)[C@@H](OC(C)=O)[C@H](O1)[C@H](NC(=O)OC(C)(C)C)[C@@H](OC(C)=O)C2` (stereo partly shown), the ring closure, isolated yield in data set [1] (from C=CC[C@]1(C(=O)OC)C[C@H](OC(C)=O)[C@@H](NC(=O)OC(C)(C)C)[C@H]([C@H](OC(C)=O)[C@@H](CNC(=O)c2cc(Cl)c(OC(C)=O)c(CCCC[C@H](NC(=O)C3CCCOC3)c3cccc(C=C)c3)c2)OC(C)=O)O1, 22-membered ring, 1.3 mM, 88.0 °C, 0.5 h) was 57%; in data set [1] (from C=CC[C@]1(C(=O)OC)C[C@H](OC(C)=O)[C@@H](NC(=O)OC(C)(C)C)[C@H]([C@H](OC(C)=O)[C@@H](CNC(=O)c2cc(Cl)c(OC(C)=O)c(CCCC[C@H](NC(=O)C3CCCOC3)c3cccc(C=C)c3)c2)OC(C)=O)O1, 1.3 mM, 88.0 °C, 0.5 h), 16%.
